What was measured:
[1] = test system: HUVEC; test: Calcium imaging, intracellular [Ca2+]i increase in HUVEC; assay type: cell-based, human; settings: for changes in cellular [Ca2+]i: 2 μmol/L
Procedure: HUVECs were plated onto 24-well plates and grown to 70% confluence. To monitor cytosolic Ca^2+ signals, cells were loaded with fluo-3 AM (4 μmol/L; Molecular Probes) and incubated for 40 min at 37° C. in complete medium that contained […] pluronic acid. After washing twice with HEPES buffer that contained (in mmol/L) 1.25 CaCl2, 5.5 D-glucose, 10 HEPES, 5 KCl, 0.5 MgCl2, and 140 NaCl (brought to pH 7.4 with NaOH); the plates were incubated at 37° C. for 15 additional minutes prior to fluorescence imaging. Fluorescence images were acquired every 1 s over the course of 5 min in cells treated with 4α-phorbol-12, 13-didecanoate (4α-PDD; a specific TRPV4 agonist; 10 μmol/L), 5,6-diHETE ((±)5,6-dihydroxy-8Z,11Z,14Z,17Z-eicosatetraenoic acid) 1, 5 lactone (0.01-5 μmol/L) and 5,6-diHETE (hydrolytic isomer of 5,6-EEQ; 2 and 5 μmol/L). The calculated ratio between maximal intensity (F1) and basal intensity (F0) was determine for each experiment and presented as Average±SD.
To investigate the effect of 5,6-diHETE ((±)5,6-dihydroxy-8Z,11Z,14Z,17Z-eicosatetraenoic acid) lactone on cytosolic [Ca^2+]i (FIG. 1), HUVECs were exposed to graded doses of 5,6-diHETE lactone (0.01-5 μmol/L) in ethanol/HEPES buffer, and the intracellular changes in [Ca^2+] were determined by the mean of fluoresces intensity. […] No significant differences in cytosolic [Ca^2+]i levels were detected beyond 0.5 μM lactone. Above this concentration the cytosolic [Ca^2+]i levels reach saturation.
These rapid pathways result in the reduction of epoxide concentrations, and thus, in a decrease in their activity. We therefore tested the ability of the hydrolyzed form compared to the unhydrolyzed form to increase intracellular calcium (FIG. 2).

[2] = target: T1, KCa3.1 (IK) calcium-activated potassium channel (human KCNN4 gene) expressed in CHO cells (Homo sapiens, UniProt O15554); test: Thallium flux assay, agonist effect on IK channel; assay type: cell-based; settings: for Normalized % Activation: IK
T1 construct: expressed in transfected cells
Procedure: (§1) Potassium channels genes were expressed in HEK293 or CHO cells (see Table 1). SspI or PvuI enzymes were used to linearize pcDNA3.1 plasmid (Thermo Fisher). The plasmid was stably transfected by Lonza Nucleofector. The transfection efficiency was >80% as validated by expression (western blot) and activation (patch clamp and membrane potential detection) of the channels.
(§2) Functional activity of voltage-gated potassium channels was conducted using a potassium dye (Thallium flux assay, Molecular Devices) using a Fluorescence Imaging Plate Reader (FLIPRTETRA™) instrument, according to the manufacturer's instructions. Cells were plated in 384-well black wall, flat clear bottom microtiter plates (BD Biocoat Poly-D Lysine Multiwell Cell Culture Plate) at 15,000 to 30,000 cells per well. Cells were incubated at 37° C. overnight or until cells reach sufficient density in the wells (near confluent monolayer) to use in fluorescence assays. A typical sequence is to record a baseline during the pre-incubation period (first addition of test article before stimulation), followed by activation in the stimulus buffer. For each addition, the first 60 seconds of data are acquired at the maximum rate (1 sample/second) and for the remaining 9-19 minutes (depending on the recording time of each addition); data are sampled every 5 seconds.
(§3) Accordingly, the objective of this study was to evaluate the agonist effects in vitro of the 5,6-diHETE lactone on two cloned human channels stably expressed in HEK-293 or CHO cells. The assay was performed with a thallium flux assay (FLIPR® Potassium Assay, Molecular Devices) according to the manufacturer's instructions. Briefly, cells were plated in 384-well black wall, flat clear bottom microtiter plates (BD Biocoat Poly-D-Lysine Multiwell Cell Culture Plate) at 15,000 to 30,000 cells per well. Cells were incubated at 37° C. overnight or until cells reach sufficient density in the wells (near confluent monolayer) to use in fluorescence assays. Dye-loading: Growth medium was removed and replaced with dye-loading buffer for 60 minutes at room temperature (protected from light). Agonist Effect: 5 repetitions of (5 μL) test, and vehicle or control solutions (assay buffer=0.3% DMSO) in K^+-free buffer with 5 mM Tl^+ was added to each well for ˜5 minutes. The test was 5,6-diHETE lactone (at eight concentrations: 0.05, 0.15, 0.3, 0.65, 1.25, 2.5, 5, and 10 μM, n=4). The agonist effects of the test article on the potassium channels was evaluated during this period by using a Fluorescence Imaging Plate Reader (FLIPRTETRA™) instrument.
(§4) To calculate the effect, the signal elicited in the presence of a known agonist, (1 μM A-23187 for SK3 and 10 μM NS309 for IK) with 5 mM thallium was set to 100% activation and the signal in the presence of the vehicle control (assay buffer+0.3% DMSO) was set to 0% activation. EC50 was calculated using GraphPad prism 5 software using nonlinear regression fit formula assuming a simple binding model.

[3] = test system: Human adipose arterioles (HAAs); test: Dilation of human adipose arterioles (HAAs), cannulated, video diameter measurement; settings: for max dilation: 10^−7 mol/L, pre-constricted with endothelin-1
Procedure: Human adipose arterioles (HAAs) were extracted from adipose tissues obtained from subjects without coronary artery disease (7 normotensives and 7 hypertensives). The HAAs (100-200 μm in diameter) were cannulated with 2 glass micropipettes in an organ chamber, and the internal diameter of arterioles was measured with a video system. Arterioles were pre-constricted with endothelin-1 (10-50 nmol/L) to reduce the passive diameter by 30-50%. Relaxation was measured in response to the increasing concentrations of 5,6-diHETE lactone (10^−4-10^−1 μmol/L). To examine the involvement of NO in the 5,6-diHETE lactone-induced dilation, relaxation responses were determined in the presence or absence of nitric oxide synthase (NOS) antagonist (100 μmol/L N[omega]-nitro-Larginine methyl ester [L-NAME]).
Endothelial cell denudation was achieved by perfusion of the vessels with pre-warmed air as previously described (H. Miura, Circ. Res. 92 (2003)). At the end of each experiment, papaverine (100 μmol/L), an endothelium-independent vasodilator, was added to determine the maximal dilation for normalization of dilator responses. Vasodilator responses are expressed as the percentage of maximal dilation, with 100% representing complete relaxation (maximal diameter).

[4] = target: T2, KCa2.3 (SK3) calcium-activated potassium channel (human KCNN3 gene) expressed in HEK293 cells (Homo sapiens, UniProt Q9UGI6); test: Thallium flux assay, agonist effect on SK3 channel; assay type: cell-based
T2 construct: expressed in transfected cells
Procedure: as §1, §2, §3, §4

[5] = test system: rat mesenteric arteries; test: Relaxation of rat mesenteric arteries from NT and 5/6Nx rats (wire myograph)
[6] = test system: mouse mesenteric resistance arteries; test: Vascular reactivity in mouse mesenteric resistance arteries (wire myograph); settings: 10^−5 mol/L, pre-constricted with U-46619 0.1 μmol/L, n=11
Procedure: On the day preceding the experiment, adult male mice (age 3-6 months) were decapitated and mesenteric tissue was dissected and placed on an agar plate with ice-cold HEPES-physiological saline solution (PSS) containing: 123 mM NaCl, 4.7 mM KCl, 2.5 mM CaCl2*2H2O, 1.2 mM MgSO4*7H2O, 20 mM NaHCO3, 1.2 mM KH2PO4, 26 μM EDTA, 11 mM glucose and 2.38 mg/ml HEPES Fat and connective tissue were carefully removed, arterioles (150-200 μm diameter) were cut into 3 mm segments and stored overnight at 4° C. The vessels were then mounted carefully on two tungsten wires (0.025 mm diameter) with care not to damage the endothelium, and mounted on a four-chamber wire myograph (DMT, Denmark, Model 620 M). Arteries were then equilibrated at 37° C. for 30 min in the myograph chamber filled with PSS and constantly bubbled with gas containing 21% O2, 74% N2, and 5% CO2 and set at 1 mN resting tension obtained in the LabChart Pro software (AD instruments, Oxfordshire, UK). […] After contraction reached steady state, cumulative concentrations of 5,6-diHETE lactone were added (1 μM to 10 μM) in DMSO (up to 0.16%) and the % relaxation responses were determined relative to the relaxation response to 100 μM papaverine.
To evaluate the vasodilation mediated by 5,6-diHETE lactone, mesenteric arteries from C57BL were extracted and monitored for their dilation in a wire myograph chamber under physiological conditions. […]

[7] = test system: Sprague-Dawley 5/6Nx rats; test: Direct blood pressure measurement in 5/6Nx rats after acute injection; assay type: in vivo, rat
Procedure: Direct blood pressure measurements—For direct blood pressure (BP) evaluation, Sprague-Dawley 5/6Nx rats were deeply anesthetized by an injection of 87 mg/kg ketamine and 13 mg/kg xylazine (intramuscular) mixture. Next, the rats were instrumented with a venous line and an arterial line. Specifically, using 26G i.v. cannula (BD Neoflon, Helsinborg, Sweden) we punctured one of the tail veins, and installed the cannula. Next, 1 ml of saline heparin (500 IU/ml) mixture was administered to avoid blood clotting. Concomitantly, we installed the arterial line, after a neck incision we bluntly exposed the right carotid and ligated it distally. Then the artery was clamped proximally and incised between the ligation and the clamp. A 100 PE tube was advanced into the artery and tightened in it by second ligature aimed to avoid blood leakage, and then we removed the arterial clamp. The external tube was attached to a Luer stopcock valve, through which saline could be injected, blood withdrawn and to be connected to a pressure transducer.
Upon connecting and stabilization, signals were continuously sampled at a sampling rate of 200 samples/sec by the MPVS-300 system, recorded.
Basal BP was recorded for 10 min, after which time 0.5 ml 5,6-diHETE lactone (0.3 mg/kg and 3 mg/kg) dissolved in saline+DMSO (9:1) were injected through the venous line, and BP was recorded for additional 10 min after injection. For control, two distinct, known BP lowering agents were used consecutively, labetalol (10 mg/kg) a known a and p adrenergic inhibitor, and amlodipine (1.5 mg/kg) a calcium channel blocker (each by 0.5 ml venous injection). BP was recorded for additional 10 min after each injection. Specifically, after lactone effect recording labetalol was administered and 10 min later the amlodipine. We terminated the experiment by venous administration of 1M KCl overdose, until the heart stopped.

Structure (SMILES): CC/C=C\C/C=C\C/C=C\C/C=C\CC(O)C(O)CCCC(=O)O (racemic) [5,6-diHETE, (±)5,6-dihydroxy-8Z,11Z,14Z,17Z-eicosatetraenoic acid]
- lowest concentration causing a significant [Ca2+] increase [1]: 5 µmol/L
- changes in cellular [Ca2+]i [1]: not

Structure (SMILES): CCC=CCC=CCC=CCC=CCC(O)C1CCCC(=O)O1 (racemic) [5,6-diHETE lactone, 5,6 dihydroxyeicosatetraenoic acid (5,6-diHETE) lactone]
- EC50 ([2]; CHO cells, 100% = 10 μM NS309, read-out: EC50, IK channel activation): 2650 nM
- Normalized % Activation ([2]; 0.05 μM): −0.13%
- Normalized % Activation ([2]; 0.15 μM): −0.03%
- Normalized % Activation ([2]; 0.3 μM): 0.2%
- Normalized % Activation ([2]; 0.65 μM): 1.03%
- Normalized % Activation ([2]; 1.25 μM): 6.06%
- Normalized % Activation ([2]; 2.5 μM): 44.2%
- Normalized % Activation ([2]; 5 μM): 90%
- Normalized % Activation ([2]; 10 μM): 98.19%
- max dilation ([3]; hypertensive subjects): 40.9%
- effect of L-NAME on the dilation ([3]; hypertensive subjects, L-NAME 100 μmol/L): no effect
- effect of mechanical denudation of the endothelial layer on induced dilation ([3]; normotensive (healthy) arterioles): significantly reduced
- max dilation ([3]; normotensive subjects): 58.6%
- reduction of the dilation effect by L-NAME ([3]; normotensive subjects, L-NAME 100 μmol/L): 50%
- EC50 ([4]; HEK293 cells, 100% = 1 μM A-23187, read-out: EC50, SK3 channel activation): 9990 nM
- Normalized % Activation ([4]; SK3, 0.05 μM): 0.12%
- Normalized % Activation ([4]; SK3, 0.15 μM): 0.35%
- Normalized % Activation ([4]; SK3, 0.3 μM): 0.95%
- Normalized % Activation ([4]; SK3, 0.65 μM): 3.25%
- Normalized % Activation ([4]; SK3, 1.25 μM): 10.16%
- Normalized % Activation ([4]; SK3, 2.5 μM): 25.36%
- Normalized % Activation ([4]; SK3, 5 μM): 43.17%
- Normalized % Activation ([4]; SK3, 10 μM): 73.65%
- % relaxation (relative to papaverine) ([5]; 5/6Nx vessels, 10^−6M, n=11): 73.3±20.2%
- % relaxation (relative to papaverine) ([5]; NT vessels, 10^−6M, n=11): 58.6±25.0%
- effect of pre-treatment with TRAM-34 and apamin on induced relaxation ([5]; lactone 1 μmol/L, TRAM-34 1 μmol/L and apamin 1 μmol/L, p<0.01): significantly attenuated
- % dilation (relative to 100 μM papaverine) [6]: 29.4±3.1%
- concentration beyond which cytosolic [Ca2+]i levels show no significant differences (saturation) [1]: 0.5 µM
- lowest concentration causing a significant [Ca2+] increase [1]: 0.01 µmol/L
- changes in cellular [Ca2+]i [1]: induced
- EC50 ([1]; Homo sapiens, Fluo4 fluorescence, 0.01-5 μmol/L, read-out: EC50 of [Ca2+]i increase (F1max/F0)): 9.94 nM
- percent reduction of SBP from baseline ([7]; 0.3 mg/kg i.v.): about 20%
- systolic blood pressure (SBP) upon injection ([7]; 0.3 mg/kg i.v., baseline 188.0±5.5 mmHg, 3 rats): 162.5±12.3 mmHg

Structure (SMILES): CC(CCc1ccccc1)NCC(O)c1ccc(O)c(C(N)=O)c1 (centres unmarked) [labetalol, reference compound]
- percent reduction of SBP from baseline ([7]; 10 mg/kg i.v., given after the lactone): about 20%

Structure (SMILES): CC(=O)OCC[N+](C)(C)C [Acetylcholine, acetylcholine, reference compound]
- % relaxation (relative to papaverine) ([5]; 5/6Nx vessels, acetylcholine concentration response, n=7-13): 63.2±15.6%
- % relaxation (relative to papaverine) ([5]; NT vessels, acetylcholine concentration response, n=7-13): 94.8±5.5%
